Source: patent US20180370927A1, “MICROBIOCIDAL OXADIAZOLE DERIVATIVES” (SYNGENTA PARTICIPATIONS AG, priority 2015, published 2018)
Read-outs that look alike come from different tables or passages of the source.

What was measured:
[1] = test system: Puccinia recondita f. Sp. Tritici; assay: Puccinia recondita f. sp. tritici / wheat / leaf disc preventative (brown rust); format: in vivo; details: foliar, read-out: disease control compared to untreated control leaf disks
Procedure: Leaf disks or leaf segments of various plant species are cut from plants grown in a greenhouse. The cut leaf disks or segments are placed in multiwell plates (24-well format) onto water agar. The leaf disks are sprayed with a test solution before (preventative) or after (curative) inoculation. Compounds to be tested are prepared as DMSO solutions (max. 10 mg/mL) which are diluted to the appropriate concentration with 0.025% Tween20 just before spraying. The inoculated leaf disks or segments are incubated under defined conditions (temperature, relative humidity, light, etc.) according to the respective test system. A single evaluation of disease level is carried out 3 to 14 days after inoculation, depending on the pathosystem. Percent disease control relative to the untreated check leaf disks or segments is then calculated.
Example 1: Fungicidal Activity Against Puccinia recondita f. Sp. Tritici/Wheat/Leaf Disc Preventative (Brown Rust)
Wheat leaf segments cv. Kanzler were placed on agar in multiwell plates (24-well format) and sprayed with the formulated test compound diluted in water. The leaf disks were inoculated with a spore suspension of the fungus 1 day after application. The inoculated leaf segments were incubated at 19° C. and 75% relative humidity (rh) under a light regime of 12 hours light/12 hours darkness in a climate cabinet and the activity of a compound was assessed as percent disease control compared to untreated when an appropriate level of disease damage appears in untreated check leaf segments (7 to 9 days after application).
The following compounds at 200 ppm in the applied formulation give at least 80% disease control in this test when compared to untreated control leaf disks under the same conditions, which show extensive disease development.

[2] = test system: Glomerella lacenarium (Colletotrichum lacenarium); assay: Glomerella lacenarium (Colletotrichum lacenarium) liquid culture / cucumber / preventative (anthracnose); format: cell-based; details: read-out: disease control (inhibition of growth, photometric) compared to untreated control
Procedure: Mycelia fragments or conidia suspensions of a fungus prepared either freshly from liquid cultures of the fungus or from cryogenic storage, are directly mixed into nutrient broth. DMSO solutions of the test compound (max. 10 mg/ml) are diluted with 0.025% Tween20 by a factor of 50 and 10 μL of this solution is pipetted into a microtiter plate (96-well format). The nutrient broth containing the fungal spores/mycelia fragments is then added to give an end concentration of the tested compound. The test plates are incubated in the dark at 24° C. and 96% relative humidity. The inhibition of fungal growth is determined photometrically after 2 to 7 days, depending on the pathosystem, and percent antifungal activity relative to the untreated check is calculated.
Example 4: Fungicidal Activity Against Glomerella lacenarium (Colletotrichum lacenarium) Liquid Culture/Cucumber/Preventative (Anthracnose)
Conidia of the fungus from cryogenic storage are directly mixed into nutrient broth (PDB—potato dextrose broth). After placing a (DMSO) solution of test compound into a microtiter plate (96-well format), the nutrient broth containing the fungal spores is added. The test plates are incubated at 24° C. and the inhibition of growth is measured photometrically 3 to 4 days after application.
The following compounds at 20 ppm in the applied formulation give at least 80% disease control in this test when compared to untreated control under the same conditions, which show extensive disease development.

[3] = 200 ppm in the applied formulation, wheat leaf segments, preventative, assessed 7 to 9 days after application
[4] = 20 ppm in the applied formulation, liquid culture in PDB, 24° C., 3 to 4 days after application

CON(Cc1ccc(-c2noc(C(F)(F)F)n2)cc1)C(=O)C(=O)NC1CCCC1 [Compound 4.79, N-cyclopentyl-N′-methoxy-N′-[[4-[5-(trifluoromethyl)-1,2,4-oxadiazol-3-yl]phenyl]methyl] oxamide]
pest or weed control at 200 ppm [1, 3]: ≥ 80%
inhibition at 20 ppm [2, 4]: ≥ 80%

O=C(NCc1ccccc1)C(=O)NCc1ccc(-c2noc(C(F)(F)F)n2)cc1 [Compound 4.53, N-benzyl-N′-[[4-[5-(trifluoromethyl)-1,2,4-oxadiazol-3-yl]phenyl]methyl] oxamide]
pest or weed control at 200 ppm [1, 3]: ≥ 80%

CC(C)CC(=O)C(=O)NCc1c(F)cc(-c2noc(C(F)(F)F)n2)cc1F [Compound 1.69, N-[[2,6-difluoro-4-[5-(trifluoromethyl)-1,2,4-oxadiazol-3-yl]phenyl]methyl]-4-methyl-2-oxo-pentanamide]
pest or weed control at 200 ppm [1, 3]: ≥ 80%
inhibition at 20 ppm [2, 4]: ≥ 80%

CON=C(C(=O)N(Cc1ccc(-c2noc(C(F)(F)F)n2)cc1)OC)c1ccccc1 [Compound 2.4, N-methoxy-2-methoxyimino-2-phenyl-N-[[4-[5-(trifluoromethyl)-1,2,4-oxadiazol-3-yl]phenyl]methyl]acetamide]
pest or weed control at 200 ppm [1, 3]: ≥ 80%
inhibition at 20 ppm [2, 4]: ≥ 80%

CN(C(=O)C(=O)Nc1ccc(-c2noc(C(F)(F)F)n2)cc1)C1CCN(C(=O)OC(C)(C)C)C1 (stereo not drawn) [Compound 4.22, tert-butyl 3-[methyl-[2-oxo-2-[4-[5-(trifluoromethyl)-1,2,4-oxadiazol-3-yl]anilino]acetyl]amino] pyrrolidine-1-carboxylate]
pest or weed control at 200 ppm [1, 3]: ≥ 80%

CCCC(=O)C(=O)N(Cc1ccc(-c2noc(C(F)(F)F)n2)cc1)OCc1ccc(Cl)cc1 [Compound 1.24, N-[(4-chlorophenyl)methoxy]-2-oxo-N-[[4-[5-(trifluoromethyl)-1,2,4-oxadiazol-3-yl]phenyl]methyl]pentanamide]
inhibition at 20 ppm [2, 4]: ≥ 80%

CC(=O)C(=O)NCc1ccc(-c2noc(C(F)(F)F)n2)cn1 [Compound 1.28, 2-oxo-N-[[5-[5-(trifluoromethyl)-1,2,4-oxadiazol-3-yl]-2-pyridyl]methyl]propanamide]
inhibition at 20 ppm [2, 4]: ≥ 80%

CON(Cc1ccc(-c2noc(C(F)(F)F)n2)cc1)C(=O)C(=O)NC1CCCCC1 [Compound 4.63, N-cyclohexyl-N′-methoxy-N′-[[4-[5-(trifluoromethyl)-1,2,4-oxadiazol-3-yl]phenyl]methyl] oxamide]
pest or weed control at 200 ppm [1, 3]: ≥ 80%
inhibition at 20 ppm [2, 4]: ≥ 80%

CC(C)CNC(=O)C(=O)NCc1ccc(-c2noc(C(F)(F)F)n2)cc1 [Compound 4.50, N′-isobutyl-N-[[4-[5-(trifluoromethyl)-1,2,4-oxadiazol-3-yl]phenyl]methyl] oxamide]
pest or weed control at 200 ppm [1, 3]: ≥ 80%

CCCC(=O)C(=O)N(Cc1ccc(-c2noc(C(F)(F)F)n2)cc1)C(C)CC (stereo not drawn) [Compound 1.11, 2-oxo-N-sec-butyl-N-[[4-[5-(trifluoromethyl)-1,2,4-oxadiazol-3-yl]phenyl]methyl]pentanamide]
inhibition at 20 ppm [2, 4]: ≥ 80%

NC(=O)C(=O)N(Cc1ccc(-c2noc(C(F)(F)F)n2)cc1)Cc1ccco1 [Compound 4.24, N′-(2-furylmethyl)-N′-[[4-[5-(trifluoromethyl)-1,2,4-oxadiazol-3-yl]phenyl]methyl] oxamide]
pest or weed control at 200 ppm [1, 3]: ≥ 80%
inhibition at 20 ppm [2, 4]: ≥ 80%

CON(Cc1ccc(-c2noc(C(F)(F)F)n2)cc1)C(=O)C(=O)NCc1ccccc1 [Compound 4.71, N-benzyl-N′-methoxy-N'-[[4-[5-(trifluoromethyl)-1,2,4-oxadiazol-3-yl]phenyl]methyl] oxamide]
pest or weed control at 200 ppm [1, 3]: ≥ 80%
inhibition at 20 ppm [2, 4]: ≥ 80%

CC(=O)C(=O)NCc1ccc(-c2noc(C(F)(F)F)n2)cc1Cl [Compound 1.60, N-[[2-chloro-4-[5-(trifluoromethyl)-1,2,4-oxadiazol-3-yl]phenyl]methyl]-2-oxo-propanamide]
inhibition at 20 ppm [2, 4]: ≥ 80%

N#CCCN(CCC#N)C(=O)C(=O)Nc1ccc(-c2noc(C(F)(F)F)n2)cc1 [Compound 4.18, N′,N′-bis(2-cyanoethyl)-N-[4-[5-(trifluoromethyl)-1,2,4-oxadiazol-3-yl]phenyl]oxamide]
pest or weed control at 200 ppm [1, 3]: ≥ 80%

CCCC(=O)C(=O)N(Cc1ccc(-c2noc(C(F)(F)F)n2)cc1)OCC=C(Cl)Cl [Compound 1.23, N-(3,3-dichloro-allyloxy)-2-oxo-N-[[4-[5-(trifluoromethyl)-1,2,4-oxadiazol-3-yl]phenyl]methyl]pentanamide]
inhibition at 20 ppm [2, 4]: ≥ 80%

CO/N=C(\C#N)C(=O)N(Cc1ccc(-c2noc(C(F)(F)F)n2)cc1)C1CC1 [Compound 2.15, (1E)-2-[cyclopropyl-[[4-[5-(trifluoromethyl)-1,2,4-oxadiazol-3-yl]phenyl]methyl]amino]-N-methoxy-2-oxo-acetimidoyl cyanide]
pest or weed control at 200 ppm [1]: ≥ 80%
inhibition at 20 ppm [2]: ≥ 80%

O=C(NCc1ccc(-c2noc(C(F)(F)F)n2)cc1)C(=O)NCc1ccco1 [Compound 4.60, N′-(2-furylmethyl)-N-[[4-[5-(trifluoromethyl)-1,2,4-oxadiazol-3-yl]phenyl]methyl] oxamide]
pest or weed control at 200 ppm [1, 3]: ≥ 80%
inhibition at 20 ppm [2, 4]: ≥ 80%

O=C(Nc1ccc(-c2noc(C(F)(F)F)n2)cc1)C(=O)N(Cc1ccc2c(c1)OCO2)CC1OCCO1 [Compound 4.16, N′-(1,3-benzodioxol-5-ylmethyl)-N′-(1,3-dioxolan-2-ylmethyl)-N-[4-[5-(trifluoromethyl)-1,2,4-oxadiazol-3-yl]phenyl]oxamide]
inhibition at 20 ppm [2, 4]: ≥ 80%

CCCON(Cc1ccc(-c2noc(C(F)(F)F)n2)cc1)C(=O)C(C)=O [Compound 1.8, 2-oxo-N-propoxy-N-[[4-[5-(trifluoromethyl)-1,2,4-oxadiazol-3-yl]phenyl]methyl]propanamide]
pest or weed control at 200 ppm [1, 3]: ≥ 80%
inhibition at 20 ppm [2, 4]: ≥ 80%

CN(C)C(=O)C(=O)N(Cc1ccc(-c2noc(C(F)(F)F)n2)cc1)OCc1ccc(Cl)cc1 [Compound 4.33, N′-[(4-chlorophenyl)methoxy]-N,N-dimethyl-N′-[[4-[5-(trifluoromethyl)-1,2,4-oxadiazol-3-yl]phenyl]methyl] oxamide]
inhibition at 20 ppm [2, 4]: ≥ 80%

CCCON(Cc1ccc(-c2noc(C(F)(F)F)n2)cc1)C(=O)C(=O)CCC [Compound 1.7, 2-oxo-N-propoxy-N-[[4-[5-(trifluoromethyl)-1,2,4-oxadiazol-3-yl]phenyl]methyl]pentanamide]
inhibition at 20 ppm [2, 4]: ≥ 80%

CCON(C)C(=O)C(=O)NCc1ccc(-c2noc(C(F)(F)F)n2)cc1 [Compound 4.43, N′-ethoxy-N′-methyl-N-[[4-[5-(trifluoromethyl)-1,2,4-oxadiazol-3-yl]phenyl]methyl] oxamide]
pest or weed control at 200 ppm [1, 3]: ≥ 80%
inhibition at 20 ppm [2, 4]: ≥ 80%

NC(=O)C(=O)NCc1ccc(-c2noc(C(F)(F)F)n2)cc1F [Compound 4.82, N′-[[2-fluoro-4-[5-(trifluoromethyl)-1,2,4-oxadiazol-3-yl]phenyl]methyl] oxarnide]
inhibition at 20 ppm [2, 4]: ≥ 80%

CON(Cc1ccc(-c2noc(C(F)(F)F)n2)cc1)C(=O)C(=O)NCc1ccco1 [Compound 4.81, N-(2-furylmethyl)-N′-methoxy-N′-[[4-[5-(trifluoromethyl)-1,2,4-oxadiazol-3-yl]phenyl]methyl] oxamide]
pest or weed control at 200 ppm [1, 3]: ≥ 80%
inhibition at 20 ppm [2, 4]: ≥ 80%

COCCN(Cc1ccccc1)C(=O)C(=O)Nc1ccc(-c2noc(C(F)(F)F)n2)cc1 [Compound 4.15]
pest or weed control at 200 ppm [1, 3]: ≥ 80%
inhibition at 20 ppm [2, 4]: ≥ 80%

CC(C)(C)CNC(=O)C(=O)NCc1ccc(-c2noc(C(F)(F)F)n2)cc1 [Compound 4.45, N′-(2,2-dimethylpropyl)-N-[[4-[5-(trifluoromethyl)-1,2,4-oxadiazol-3-yl]phenyl]methyl] oxamide]
inhibition at 20 ppm [2, 4]: ≥ 80%

NC(=O)C(=O)NCc1ccc(-c2noc(C(F)(F)F)n2)c(F)c1 [Compound 4.83, N′-[[3-fluoro-4-[5-(trifluoromethyl)-1,2,4-oxadiazol-3-yl]phenyl]methyl] oxamide]
inhibition at 20 ppm [2, 4]: ≥ 80%
